The record followed here is patent US20110098296A1, “Thiazole And Oxazole Kinase Inhibitors” (priority 2007, published 2011).

Structures can show the parent of a compound that is named as a salt.

Assay [1] concerns the target T1, EGFR (Homo sapiens, UniProt P00533).
T1 construct: made in house; host or cells: baculovirus expression system
The assay can be described thus: EGFR substrate phosphorylation assay (HTRF). It counts as biochemical. To be noted: Method (A): Enzyme Mix incubated with compound at 20° C. for 1 hr, reaction started by adding Substrate Mix. Summed up:
(§1)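 Baculovirus-expressed kinase (0.8 nM EGFR or 10 nM ErbB2 in enzyme mix) with Peptide C 0.8 μM and ATP 20 μM (substrate-mix levels), MOPS pH 7.5, MnCl2; 90 min, 20 °C, HTRF anti-phosphotyrosine. Method A adds 1 h enzyme–compound preincubation; B none. pIC50, final compound 0.00027–47.6 μM.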
A general note: Time-resolved FRET reads energy transfer from a long-lived donor to a nearby acceptor.

Assay [2] addresses T2, ErbB2 (Homo sapiens, UniProt P04626).
T2 construct: made in house; host or cells: baculovirus expression system
Put plainly: ErbB-2 substrate phosphorylation assay (HTRF). The following applies: Method (A): Enzyme Mix incubated with compound at 20° C. for 1 hr, reaction started by adding Substrate Mix. It counts as biochemical. The method in brief: as §1

The test system of assay [3] is HN5 tumor cells. The assay can be described thus: Method C: Cell Growth Inhibition Assay (CellTiter-Glo), HN5. The following applies: Homo sapiens, 72 h, 3 days, 4-parameter fit. It counts as cell-based. Summed up: (§2)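 Plating at 500 cells/well is followed the next day by addition of compound as a 1:3 serial dilution series. After 3 days' incubation, CellTiter-Glo luminescence is read and IC50 is calculated versus DMSO wells.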
On the technique in general: Cellular ATP, detected with luciferase, serves as a proxy for viable cell number.

Assay [4] has as its system BT474 tumor cells. The assay can be described thus: Method C: Cell Growth Inhibition Assay (CellTiter-Glo), BT474. Format: cell-based. The following applies: Homo sapiens, BT-474, 72 h, 3 days, 4-parameter fit.
Assay [5] concerns Colo205 tumor cells. The assay can be described thus: Method C: Cell Growth Inhibition Assay (CellTiter-Glo), Colo205. Format: cell-based. To be noted: Homo sapiens, COLO 205, 72 h, 3 days, 4-parameter fit. The method in brief:
(§3)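 Cells plated at 500 cells/well, dosed next day with 10-point 1:3 dilution series (0.2% final DMSO) and grown 3 days at 37 °C, 5% CO2. CellTiter-Glo luminescence (total ATP) served as cell-number surrogate; inhibition relative to DMSO controls, IC50 interpolated by 4-parameter fit.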

Assay [6] relates to SK-MEL-28 tumor cells. Put plainly: Method C: Cell Growth Inhibition Assay (CellTiter-Glo), SK-MEL-28. To be noted: Homo sapiens, SK-MEL-28, 72 h, 3 days, 4-parameter fit. Format: cell-based. The method in brief: as §2
The subject of assay [7] is A375P F11s tumor cells. Put plainly: Method C: Cell Growth Inhibition Assay (CellTiter-Glo), A375P F11s. It counts as cell-based. The following applies: Homo sapiens, 72 h, 3 days, 4-parameter fit. Summed up: as §2
For assay [8], the system named is HT-29 tumor cells. The assay can be described thus: Method C: Cell Growth Inhibition Assay (CellTiter-Glo), HT-29. It counts as cell-based. The following applies: Homo sapiens, HT-29, 72 h, 3 days, 4-parameter fit. The method in brief:
as §2

Assay [9] deals with SK-MEL-3 tumor cells. The assay can be described thus: Method C: Cell Growth Inhibition Assay (CellTiter-Glo), SK-MEL-3. It counts as cell-based. To be noted: Homo sapiens, SK-MEL3, 72 h, 3 days, 4-parameter fit. The method in brief:
as §3

T2 sequence (P04626 23-1255): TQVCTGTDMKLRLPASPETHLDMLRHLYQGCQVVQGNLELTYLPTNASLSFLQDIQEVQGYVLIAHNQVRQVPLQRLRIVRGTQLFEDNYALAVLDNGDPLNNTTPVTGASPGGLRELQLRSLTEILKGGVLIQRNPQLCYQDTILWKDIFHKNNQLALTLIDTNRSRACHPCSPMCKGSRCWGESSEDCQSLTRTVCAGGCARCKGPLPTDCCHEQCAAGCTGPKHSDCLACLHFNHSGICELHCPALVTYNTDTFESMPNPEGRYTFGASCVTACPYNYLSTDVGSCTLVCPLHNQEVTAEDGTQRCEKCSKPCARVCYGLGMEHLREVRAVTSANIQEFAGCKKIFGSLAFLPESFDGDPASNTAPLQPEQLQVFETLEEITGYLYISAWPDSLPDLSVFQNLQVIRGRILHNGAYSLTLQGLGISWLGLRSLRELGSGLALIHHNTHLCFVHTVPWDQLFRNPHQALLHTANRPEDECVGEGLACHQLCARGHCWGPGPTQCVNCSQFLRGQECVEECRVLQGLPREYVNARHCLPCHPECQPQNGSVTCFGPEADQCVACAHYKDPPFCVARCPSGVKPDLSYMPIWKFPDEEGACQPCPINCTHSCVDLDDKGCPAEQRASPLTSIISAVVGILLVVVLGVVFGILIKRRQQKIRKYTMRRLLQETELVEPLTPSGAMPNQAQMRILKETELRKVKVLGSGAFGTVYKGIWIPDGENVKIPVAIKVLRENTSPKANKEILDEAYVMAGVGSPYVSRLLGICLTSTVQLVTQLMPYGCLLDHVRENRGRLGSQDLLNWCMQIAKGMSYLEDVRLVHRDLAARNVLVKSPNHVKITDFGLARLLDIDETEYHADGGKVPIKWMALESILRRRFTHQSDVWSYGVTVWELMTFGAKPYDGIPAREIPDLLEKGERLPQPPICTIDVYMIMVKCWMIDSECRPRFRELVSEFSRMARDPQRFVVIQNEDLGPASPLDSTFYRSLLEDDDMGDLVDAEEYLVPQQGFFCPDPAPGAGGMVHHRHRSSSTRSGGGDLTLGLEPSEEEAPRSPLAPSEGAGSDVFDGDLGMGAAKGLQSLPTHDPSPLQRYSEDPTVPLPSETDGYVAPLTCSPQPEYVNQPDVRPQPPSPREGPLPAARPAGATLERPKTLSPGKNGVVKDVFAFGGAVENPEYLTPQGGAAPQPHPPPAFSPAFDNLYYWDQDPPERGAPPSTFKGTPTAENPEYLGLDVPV
T1 sequence (P00533 25-1210): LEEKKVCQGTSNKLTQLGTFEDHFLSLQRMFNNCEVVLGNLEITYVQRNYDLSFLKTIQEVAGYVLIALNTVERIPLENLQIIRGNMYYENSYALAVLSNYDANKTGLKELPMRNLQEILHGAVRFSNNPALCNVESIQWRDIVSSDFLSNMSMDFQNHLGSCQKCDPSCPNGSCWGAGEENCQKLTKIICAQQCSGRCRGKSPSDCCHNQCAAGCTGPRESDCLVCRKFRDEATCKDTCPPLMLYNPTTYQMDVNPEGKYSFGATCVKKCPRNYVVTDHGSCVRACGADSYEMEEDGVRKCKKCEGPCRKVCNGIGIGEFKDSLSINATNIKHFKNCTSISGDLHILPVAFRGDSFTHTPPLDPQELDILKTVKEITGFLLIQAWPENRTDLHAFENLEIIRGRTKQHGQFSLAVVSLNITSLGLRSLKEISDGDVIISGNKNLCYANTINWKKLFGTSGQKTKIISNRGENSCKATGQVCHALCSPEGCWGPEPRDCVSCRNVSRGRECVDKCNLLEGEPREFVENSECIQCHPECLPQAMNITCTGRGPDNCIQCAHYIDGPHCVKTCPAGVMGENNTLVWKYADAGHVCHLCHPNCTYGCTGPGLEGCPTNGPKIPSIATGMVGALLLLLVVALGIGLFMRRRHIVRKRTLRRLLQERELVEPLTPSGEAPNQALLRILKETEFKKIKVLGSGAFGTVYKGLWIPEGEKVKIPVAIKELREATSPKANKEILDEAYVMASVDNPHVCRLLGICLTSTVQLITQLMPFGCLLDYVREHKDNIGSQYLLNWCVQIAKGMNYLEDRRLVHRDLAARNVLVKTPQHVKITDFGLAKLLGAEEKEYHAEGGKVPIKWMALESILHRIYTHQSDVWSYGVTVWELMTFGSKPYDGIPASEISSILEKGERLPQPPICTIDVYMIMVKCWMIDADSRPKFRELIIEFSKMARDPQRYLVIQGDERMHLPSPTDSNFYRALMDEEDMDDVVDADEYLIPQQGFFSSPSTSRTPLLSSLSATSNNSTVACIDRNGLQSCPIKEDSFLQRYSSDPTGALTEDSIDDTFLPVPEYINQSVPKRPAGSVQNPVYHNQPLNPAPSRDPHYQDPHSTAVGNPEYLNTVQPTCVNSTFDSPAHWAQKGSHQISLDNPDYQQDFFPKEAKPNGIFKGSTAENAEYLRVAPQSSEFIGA

Take `CN(C)c1nc(-c2cccc(NC(=O)c3c(F)cccc3F)c2)c(-c2ccnc(Nc3ccc(OCCN4CCCC4)c(Cl)c3)n2)s1` [Example 40, N-{3-[5-{2-[(3-Chloro-4-{[2-(1-pyrrolidinyl)ethyl]oxy}phenyl)amino]-4-pyrimidinyl}-2-(dimethylamino)-1,3-thiazol-4-yl]phenyl}-2,6-difluorobenzamide]: the IC50 (commonly the concentration needed to halve the response being measured) in assay [1] was less than 100 nM; in assay [2], less than 100 nM; in assay [3], 100 to 1000 nM; in [4], 100 to 1000 nM; in assay [5], 100 to 1000 nM; in assay [6] it was 100 to 1000 nM. Also, the IC50 in [7], in [8] and in assay [9] was 100 to 1000 nM throughout.
Take `Cc1nc(-c2cccc(NC(=O)c3c(F)cccc3F)c2)c(-c2ccnc(Nc3ccc(OC4CCN(C(C)C)CC4)c(F)c3)n2)s1` [Example 111, 2,6-Difluoro-N-[3-(5-{2-[(3-fluoro-4-{[1-(1-methylethyl)-4-piperidinyl]oxy}phenyl)amino]-4-pyrimidinyl}-2-methyl-1,3-thiazol-4-yl)phenyl]benzamide]: the IC50 is less than 100 nM in assay [1]; less than 100 nM in [2]; 100 to 1000 nM in [3]; less than 100 nM in [4]; 100 to 1000 nM in assay [5]; 100 to 1000 nM in [6]. In addition, the IC50 in assay [7], in assay [8] and in assay [9] was 100 to 1000 nM each time.
With `CN(C)CCOc1ccc(Nc2nccc(-c3sc(N(C)C)nc3-c3cccc(NC(=O)c4c(F)cccc4F)c3)n2)cc1` [Example 36, N-[3-(2-(Dimethylamino)-5-{2-[(4-{[2-(dimethylamino)ethyl]oxy}phenyl)amino]-4-pyrimidinyl}-1,3-thiazol-4-yl)phenyl]-2,6-difluorobenzamide], the IC50 in [1] is less than 100 nM; in assay [2], less than 100 nM; in assay [3], less than 100 nM; in assay [4], less than 100 nM; in assay [5], 100 to 1000 nM; in [6], greater than 1000 nM. Also, the IC50 in assay [7] was greater than 1000 nM; in assay [8], 100 to 1000 nM; in assay [9], greater than 1000 nM.
With `Cc1nc(-c2cccc(NC(=O)c3c(F)cccc3F)c2)c(-c2ccnc(Nc3ccc(OCCN(C)C)c(F)c3)n2)s1` [Example 105, N-[3-(5-{2-[(4-{[2-(Dimethylamino)ethyl]oxy}-3-fluorophenyl)amino]-4-pyrimidinyl}-2-methyl-1,3-thiazol-4-yl)phenyl]-2,6-difluorobenzamide], the IC50 in assay [1] was less than 100 nM; in assay [2], less than 100 nM; in assay [3], less than 100 nM; in assay [4], less than 100 nM; in assay [5], 100 to 1000 nM; in assay [6], greater than 1000 nM. Also, the IC50 in assay [7] is 100 to 1000 nM; in [8], 100 to 1000 nM; in assay [9] it was greater than 1000 nM.
Regarding `COc1ccc(Nc2nccc(-c3scnc3-c3cccc(NC(=O)c4c(F)cccc4F)c3)n2)cc1N1CCN(C)CC1` [Example 93, 2,6-Difluoro-N-{3-[5-(2-{[4-(methyloxy)-3-(4-methyl-1-piperazinyl)phenyl]amino}-4-pyrimidinyl)-1,3-thiazol-4-yl]phenyl}benzamide], the IC50 in assay [1] is less than 100 nM; in assay [2], less than 100 nM; in assay [3] it was less than 100 nM; in assay [4] it was less than 100 nM; in assay [5] it was 100 to 1000 nM; in [6], 100 to 1000 nM. Besides, the IC50 in assay [7], in [8] and in assay [9] was 100 to 1000 nM throughout.
As to `CN(C)CCOc1ccc(Nc2nccc(-c3sc(N4CCN(C)CC4)nc3-c3cccc(NC(=O)c4c(F)cccc4F)c3)n2)cc1Cl` [Example 45, N-{3-[5-{2-[(3-Chloro-4-{[2-(dimethylamino)ethyl]oxy}phenyl)amino]-4-pyrimidinyl}-2-(4-methyl-1-piperazinyl)-1,3-thiazol-4-yl]phenyl}-2,6-difluorobenzamide], the IC50 in assay [1] was less than 100 nM; in assay [2], less than 100 nM; in assay [3] it was 100 to 1000 nM; in assay [4], 100 to 1000 nM; in assay [5], 100 to 1000 nM; in [6] it was greater than 1000 nM. In addition, the IC50 in [7], in [8] and in assay [9] was 100 to 1000 nM throughout.
Take `CN1CCc2ccc(Nc3nccc(-c4sc(N)nc4-c4cccc(NC(=O)c5c(F)cccc5F)c4)n3)cc2C1` [Example 10, trifluoroacetate]: the IC50 in [1] was less than 100 nM; in assay [2] it was less than 100 nM; in [3], less than 100 nM; in assay [4], less than 100 nM; in assay [5], 100 to 1000 nM; in assay [6] it was 100 to 1000 nM. For the same compound, the IC50 in assay [7], in [8] and in assay [9] was 100 to 1000 nM each time.
For `CN(C)CCOc1cccc(Nc2nccc(-c3scnc3-c3cccc(NC(=O)c4c(F)cccc4F)c3)n2)c1` [Example 79, N-[3-(5-{2-[(3-{[2-(Dimethylamino)ethyl]oxy}phenyl)amino]-4-pyrimidinyl}-1,3-thiazol-4-yl)phenyl]-2,6-difluorobenzamide-formic acid], the 50% inhibitory concentration (IC50) was less than 100 nM in assay [1]; less than 100 nM in assay [2]; less than 100 nM in assay [3]; less than 100 nM in assay [4]; 100 to 1000 nM in [5]; greater than 1000 nM in assay [6]. Further, the figures for the IC50 in assay [7], in assay [8] and in assay [9] were 100 to 1000 nM, 100 to 1000 nM and greater than 1000 nM, respectively.
Regarding `CCc1nc(-c2cccc(NC(=O)c3c(F)cccc3F)c2)c(-c2ccnc(Nc3ccc(OCCN(C)C)c(Cl)c3)n2)s1` [Example 114, N-[3-(5-{2-[(3-Chloro-4-{[2-(dimethylamino)ethyl]oxy}phenyl)amino]-4-pyrimidinyl}-2-ethyl-1,3-thiazol-4-yl)phenyl]-2,6-difluorobenzamide], the concentration for half-maximal inhibition (IC50) was less than 100 nM in assay [1]; less than 100 nM in assay [2]; 100 to 1000 nM in [3]; 100 to 1000 nM in assay [4]; 100 to 1000 nM in assay [5]; 100 to 1000 nM in assay [6]. The values for the IC50 in assay [7], in assay [8] and in assay [9] were 100 to 1000 nM, 100 to 1000 nM and greater than 1000 nM, respectively.
Regarding `COc1ccc(Nc2nccc(-c3sc(NC4CC4)nc3-c3cccc(NC(=O)c4c(F)cccc4F)c3)n2)cc1OCCN(C)C` [Example 32, N-{3-[2-(cyclopropylamino)-5-(2-{[3-{[2-(dimethylamino)ethyl]oxy}-4-(methyloxy)phenyl]amino}-4-pyrimidinyl)-1,3-thiazol-4-yl]phenyl}-2,6-difluorobenzamide], the IC50 is less than 100 nM in assay [1]; less than 100 nM in assay [2]; less than 100 nM in assay [3]; 100 to 1000 nM in [4]; 100 to 1000 nM in assay [5]; 100 to 1000 nM in [6]. Also, the 50% inhibitory concentration (IC50) in assay [7], in assay [8] and in [9] was 100 to 1000 nM in each case.
Regarding `CCc1nc(-c2cccc(NC(=O)c3c(F)cccc3F)c2)c(-c2ccnc(Nc3ccc(OCCN4CCCC4)c(Cl)c3)n2)s1` [Example 113, N-[3-(5-{2-[(3-Chloro-4-{[2-(1-pwrolidinyl)ethyl]oxy}phenyl)amino]-4-pyrimidinyl}-2-ethyl-1,3-thiazol-4-yl)phenyl]-2,6-difluorobenzamide], the IC50 in assay [1] was less than 100 nM; in [2], less than 100 nM; in [3], 100 to 1000 nM; in [4] it was 100 to 1000 nM; in assay [5], greater than 1000 nM; in assay [6], greater than 1000 nM. Further, the 50% inhibitory concentration (IC50) in [7], in assay [8] and in [9] was 100 to 1000 nM in each case.
On to `CN(C)CCOc1ccc(Nc2nccc(-c3sc(N)nc3-c3cccc(C(=O)Nc4c(F)cccc4F)c3)n2)cc1Cl` [Example 75, 3-(2-Amino-5-{2-[(3-chloro-4-{[2-(dimethylamino)ethyl]oxy}phenyl)amino]-4-pyrimidinyl}-1,3-thiazol-4-yl)-N-(2,6-difluorophenyl)benzamide], for which the IC50 in assay [1] is less than 100 nM; in assay [2] it was less than 100 nM; in assay [3] it was 100 to 1000 nM; in [4], less than 100 nM; in assay [5], 100 to 1000 nM; in assay [6], greater than 1000 nM. For the same compound, the IC50 in assay [7], in [8] and in assay [9] was 100 to 1000 nM in each case.
On to `CNc1nc(-c2cccc(NC(=O)c3c(F)cccc3F)c2)c(-c2ccnc(Nc3cccc(CN4CCCC4)c3)n2)s1` [Example 23, 2,6-Difluoro-N-{3-[2-(methylamino)-5-(2-{[3-(1-pyrrolidinylmethyl)phenyl]amino}-4-pyrimidinyl)-1,3-thiazol-4-yl]phenyl}benzamide], for which the IC50 in assay [1] was less than 100 nM; in assay [2] it was less than 100 nM; in assay [3], less than 100 nM; in [4], less than 100 nM; in assay [5] it was 100 to 1000 nM; in [6], greater than 1000 nM. In addition, the IC50 in [7], in assay [8] and in assay [9] was 100 to 1000 nM each time.
